Data on eleven molecules can be found in ChEMBL document CHEMBL1201862, “PubChem BioAssay data set” (2004).

Among the test systems are MDA-N; 786-0; PC-3; DU-145; UACC-257; COLO 205; SW-620; SK-MEL-5; NCI-H226; K562; RXF 393; TK-10; OVCAR-4; OVCAR-5; UACC-62; SR; HCT-15; M14.
Holding throughout (assay): NCI tumour cell line growth inhibition, 48 h

Structures are written as SMILES.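 Each compound was tested at five concentrations against cells in 96-well plates for 48 hours. GI50 = concentration required for 50% inhibition of growth.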 The source made the active and inactive calls. No stated cut-off is given here; in the data, active = GI50 up to about 1.1 µM and inactive = higher. *1 amine or outer side, *2 acyl side, *3 side chain or, on linkers, in order; H or OH if unused. Where a SMILES comes first, the peptide text is derived from it. [ ]: non-standard residue; d: D form. The star is where a group is joined. ξ: configuration not given here. X43 = CCC(=O)CC(O)CC(C)CC(N[*:1])C(=O)[*:2]; ξLeu(3ξ-OH) = CC(C)C(O)C(N)C(=O)O; ξPro(4ξ-Me) = CC1CNC(C(=O)O)C1; X42 = CCC(C)/C=C/C(=O)*; Aib = CC(C)(N)C(=O)O; X44 = CC(CN(C)C)N*; βAla = NCCC(=O)O

With `O=C1/C(=C/c2ccccc2)CCc2ccc([N+](=O)[O-])cc21`, the GI50 with MDA-N is 35 µM (inactive); with 786-0, 28.4 µM (inactive); in the experiment with PC-3 it was 44.2 µM (inactive); in the experiment with DU-145, > 72.3 µM (inactive); in the experiment with UACC-257 it was 39.5 µM (inactive); in the experiment on COLO 205 it was > 100 µM (inactive). The GI50 in the experiment with SW-620 was > 70 µM (inactive); with SK-MEL-5, 25.2 µM (inactive); in the experiment with NCI-H226, > 100 µM (inactive); with K562 it was 15.9 µM (inactive); in the experiment with RXF 393, 23.8 µM (inactive); in the experiment on TK-10 it was 60.1 µM (inactive). Moreover, the GI50 was 39.5 µM (inactive) in the experiment on OVCAR-4; > 100 µM (inactive) in the experiment on OVCAR-5; 31 µM (inactive) with UACC-62; 4.26 µM (inactive) with SR; 39.7 µM in the experiment with HCT-15; 48.2 µM (inactive) in the experiment on M14.
Consider `CC(C)Cc1c(C#N)c(C#N)c(N)n1Cc1ccccc1`, for which the GI50 with MDA-N, with 786-0, with PC-3, with DU-145, in the experiment with UACC-257 and in the experiment on COLO 205 was > 100 µM (inactive) in each case. The GI50 in the experiment with SW-620, with SK-MEL-5, with NCI-H226, in the experiment on K562, in the experiment on RXF 393 and in the experiment with TK-10 was > 100 µM (inactive) in each case. Moreover, the GI50 is > 100 µM (inactive) with OVCAR-4; > 100 µM (inactive) with OVCAR-5; 55.5 µM (inactive) in the experiment on UACC-62; > 100 µM (inactive) in the experiment on SR; more than 100 µM with HCT-15; > 100 µM (inactive) with M14.
Consider `O=C(O)CCN1C(=S)CSC1=S`, for which the GI50 with MDA-N, with 786-0, in the experiment on PC-3, in the experiment on DU-145, in the experiment on UACC-257 and with COLO 205 was > 100 µM (inactive) in each case. For the same molecule, the GI50 was > 100 µM (inactive) in the experiment with SW-620; > 100 µM (inactive) in the experiment with SK-MEL-5; > 100 µM (inactive) in the experiment with NCI-H226; 78 µM (inactive) in the experiment with K562; > 100 µM (inactive) in the experiment on RXF 393; > 100 µM (inactive) in the experiment with TK-10. Also, the GI50 in the experiment on OVCAR-4 was > 100 µM (inactive); in the experiment with OVCAR-5, > 100 µM (inactive); in the experiment with UACC-62, > 100 µM (inactive); in the experiment on SR it was 39.7 µM (inactive); with HCT-15 it was more than 100 µM; in the experiment with M14 it was > 100 µM (inactive).
In the case of `COc1cccc(C2c3cc4c(cc3OC(N3CCCCC3)C2C)OCO4)c1O` (stereo not drawn), the GI50 with MDA-N is 2.3 µM (inactive); with 786-0 it was 4.72 µM (inactive); in the experiment with PC-3, 4.83 µM (inactive); with DU-145, 7.53 µM (inactive); in the experiment with UACC-257 it was 8.04 µM (inactive); in the experiment on COLO 205, 4.89 µM (inactive). The GI50 in the experiment on SW-620 was 3.97 µM (inactive); in the experiment with SK-MEL-5, 3.62 µM (inactive); in the experiment with NCI-H226, 6.55 µM (inactive); with K562 it was 2.23 µM (inactive); in the experiment with RXF 393, 3.25 µM (inactive); in the experiment with TK-10 it was 13.8 µM (inactive). Besides, the GI50 was 7.38 µM (inactive) with OVCAR-4; 17.7 µM (inactive) in the experiment on OVCAR-5; 5.92 µM (inactive) in the experiment on UACC-62; 3.01 µM (inactive) with SR; 4.21 µM in the experiment on HCT-15; 4.2 µM (inactive) in the experiment on M14.
In the case of `CCC(=O)CC(O)CC(C)CC(NC(=O)C1CC(C)CN1C(=O)/C=C/C(C)CC)C(=O)NC(C(=O)NC(C)(C)C(=O)NC(CC(C)C)C(=O)NC(CC(C)C)C(=O)NC(C)(C)C(=O)NC(C)(C)C(=O)NCCC(=O)NC(C)CN(C)C)C(O)C(C)C` (stereo not drawn) (X42-[ξPro(4ξ-Me)][X43][ξLeu(3ξ-OH)][Aib]LL[Aib][Aib][βAla]-X44; configuration not given here), the GI50 in the experiment on MDA-N was 0.0818 µM (active); in the experiment with 786-0, 1.52 µM (inactive); in the experiment on PC-3, 0.00632 µM (active); in the experiment on DU-145 it was 0.351 µM (active); in the experiment on UACC-257, < 0.005 µM (active); with COLO 205, 0.0131 µM (active). Besides, the GI50 with SW-620 is 0.143 µM (active); in the experiment with SK-MEL-5 it was < 0.005 µM (active); with NCI-H226, < 0.005 µM (active); in the experiment with K562 it was 0.0469 µM (active); in the experiment on RXF 393 it was 0.38 µM (active); in the experiment with TK-10 it was 0.345 µM (active). Besides, the GI50 was 0.0361 µM (active) in the experiment on OVCAR-4; 0.313 µM (active) with OVCAR-5; 0.268 µM (active) with UACC-62; 0.028 µM (active) in the experiment with SR; 5.4 µM with HCT-15; 0.615 µM (active) in the experiment with M14.
As for `COC1(OC)C[C@H](C)[C@@]23O[C@]24C2=CC(=O)C=CC2=N[C@H]3C#C/C=C\C#C[C@]14O`, the GI50 is 1.08 µM (active) in the experiment on MDA-N; 0.0675 µM (active) in the experiment with 786-0; 0.753 µM (active) in the experiment with PC-3; 1.04 µM (active) with DU-145; 1.49 µM (inactive) in the experiment on UACC-257; 0.541 µM (active) in the experiment with COLO 205. Also, the GI50 with SW-620 is 0.415 µM (active); in the experiment with SK-MEL-5 it was 0.323 µM (active); in the experiment on NCI-H226 it was 0.7 µM (active); with K562 it was 0.359 µM (active); with RXF 393, 0.537 µM (active); in the experiment on TK-10, 0.893 µM (active). For the same molecule, the GI50 is 0.501 µM (active) with OVCAR-4; 0.39 µM (active) with OVCAR-5; 1.19 µM (inactive) in the experiment on UACC-62; 0.032 µM (active) in the experiment with SR; 0.432 µM in the experiment with HCT-15; 0.53 µM (active) in the experiment with M14.
For `CC(C)(CO[C@H]1C[C@H]2CC[C@@]1(C)C2(C)C)[N+](=O)[O-]`, the GI50 in the experiment with MDA-N was 15.6 µM (inactive); in the experiment with 786-0 it was 14.3 µM (inactive); in the experiment with PC-3, 20.9 µM (inactive); in the experiment with DU-145 it was 17.3 µM (inactive); with UACC-257, 18.5 µM (inactive); in the experiment on COLO 205 it was 15.6 µM (inactive). Further, the GI50 in the experiment on SW-620 was 22.2 µM (inactive); with SK-MEL-5, 17.3 µM (inactive); in the experiment with NCI-H226 it was 16.1 µM (inactive); in the experiment on K562, 13.9 µM (inactive); in the experiment on RXF 393, 11 µM (inactive); in the experiment with TK-10, 17.1 µM (inactive). Also, the GI50 is 30.3 µM (inactive) with OVCAR-4; 16.8 µM (inactive) in the experiment with OVCAR-5; 19.9 µM (inactive) in the experiment with UACC-62; 5.25 µM (inactive) in the experiment on SR; 22.6 µM in the experiment with HCT-15; 13.3 µM (inactive) in the experiment on M14.
With `CCOC(=O)C1(C#N)C(C#N)(C#N)C1(C#N)C#N`, the GI50 in the experiment with MDA-N, in the experiment on 786-0, in the experiment on PC-3, with DU-145, in the experiment with UACC-257 and with COLO 205 was > 100 µM (inactive) in each case. Further, the GI50 in the experiment with SW-620, in the experiment on SK-MEL-5, with NCI-H226, with K562, with RXF 393 and with TK-10 was > 100 µM (inactive) in each case. In addition, the GI50 in the experiment with OVCAR-4 is > 100 µM (inactive); in the experiment with OVCAR-5, > 100 µM (inactive); with UACC-62, > 100 µM (inactive); in the experiment on SR it was 88.5 µM (inactive); in the experiment on HCT-15 it was more than 100 µM; with M14, > 100 µM (inactive).
Take `COc1cc2cc(C(=O)N3CC(CCl)c4c3cc(NCCN)c3ccccc43)[nH]c2c(OC)c1OC` (stereo not drawn): the GI50 in the experiment with MDA-N is < 0.0105 µM (active); in the experiment with 786-0 it was < 0.01 µM (active); in the experiment on PC-3 it was < 0.01 µM (active); in the experiment on DU-145, < 0.01 µM (active); with UACC-257 it was 0.0105 µM (active); in the experiment with COLO 205, 0.0112 µM (active). The GI50 with SW-620 is < 0.01 µM (active); with SK-MEL-5, < 0.01 µM (active); in the experiment on NCI-H226, 0.0117 µM (active); with K562, < 0.01 µM (active); in the experiment with RXF 393, < 0.01 µM (active); in the experiment with TK-10, < 0.01 µM (active). Also, the GI50 in the experiment on OVCAR-4 is 0.0116 µM (active); with OVCAR-5, < 0.01 µM (active); in the experiment on UACC-62, < 0.01 µM (active); in the experiment on SR it was < 0.01 µM (active); in the experiment with HCT-15, 0.0105 µM; with M14, < 0.01 µM (active).
Take `O=S(=O)(O)C(CO)c1ccccc1.O=S(=O)(O)Cc1ccccc1` (stereo not drawn): the GI50 in the experiment on MDA-N, in the experiment with 786-0, in the experiment on PC-3, in the experiment with DU-145, with UACC-257 and in the experiment on COLO 205 was > 100 µM (inactive) in each case. Besides, the GI50 in the experiment on SW-620, with SK-MEL-5, with NCI-H226, in the experiment with K562, in the experiment on RXF 393 and in the experiment on TK-10 was > 100 µM (inactive) throughout. The GI50 is > 100 µM (inactive) with OVCAR-4; > 100 µM (inactive) in the experiment on OVCAR-5; > 100 µM (inactive) with UACC-62; > 100 µM (inactive) in the experiment with SR; more than 100 µM with HCT-15; > 100 µM (inactive) in the experiment with M14.
Take `COc1ccc(CCN2C(=O)C=CC2=O)cc1OC`: the GI50 is 17.8 µM (inactive) in the experiment on MDA-N; 3.07 µM (inactive) in the experiment on 786-0; 18.7 µM (inactive) with PC-3; 16.5 µM (inactive) with DU-145; 16.8 µM (inactive) in the experiment on UACC-257; 1.83 µM (inactive) in the experiment on COLO 205. Also, the GI50 is 2.28 µM (inactive) in the experiment with SW-620; 17.3 µM (inactive) in the experiment with SK-MEL-5; 5.62 µM (inactive) in the experiment on NCI-H226; 2.59 µM (inactive) with K562; 4.9 µM (inactive) with RXF 393; 15.2 µM (inactive) in the experiment with TK-10. In addition, the GI50 with OVCAR-4 was 1.88 µM (inactive); in the experiment with OVCAR-5 it was 18.4 µM (inactive); in the experiment with UACC-62 it was 17.3 µM (inactive); with SR, 2.25 µM (inactive); with HCT-15 it was 1.87 µM; with M14, 9.84 µM (inactive).
